# According to the supplement of paper PMC10307832:
# What was measured:
# Experiment in all cases: relative viability (nuclei count vs DMSO), 5 days (fraction); higher = more cells survive
# NCI-H1975 = system: NCI-H1975
# Method in brief: (§1)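 Dosing by pin tool came one day after lung cancer cell lines were seeded in 1536-well plates, using either one drug or a fixed anchor-drug dose plus five library-drug doses (not always all listed) in √10 steps. After 5 days, nuclei were counted on 4× images. Relative viability is treated-well nuclei count divided by vehicle-well nuclei count, and values are medians of duplicate plates.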
# NCI-H1792 = system: NCI-H1792
# Method in brief: as §1
# COR-L 105 = system: COR-L 105
# Method in brief: as §1
# NCI-H1437 = system: NCI-H1437
# Method in brief: as §1
# SW 1573 = system: SW 1573
# Method in brief: as §1
# NCI-H1355 = system: NCI-H1355
# Method in brief: as §1
# NCI-H727 = system: NCI-H727
# Method in brief: as §1
# NCI-H1915 = system: NCI-H1915
# Method in brief: as §1
# LCLC-103H = system: LCLC-103H
# Method in brief: as §1
# NCI-H2228 = system: NCI-H2228
# Method in brief: as §1
# NCI-H2009 = system: NCI-H2009
# Method in brief: as §1
# SK-LU-1 = system: SK-LU-1
# Method in brief: as §1
# HOP-62 = system: HOP-62
# Method in brief: as §1
# CAL-12T = system: CAL-12T
# Method in brief: as §1
# HCC-366 = system: HCC-366
# Method in brief: as §1
# NCI-H23 = system: NCI-H23
# Method in brief: as §1
# A-427 = system: A-427
# Method in brief: as §1
# NCI-H1395 = system: NCI-H1395
# Method in brief: as §1
# HARA = system: HARA
# Method in brief: as §1
# NCI-H1755 = system: NCI-H1755
# Method in brief: as §1
# NCI-H460 = system: NCI-H460
# Method in brief: as §1
# EMC-BAC-2 = system: EMC-BAC-2
# Method in brief: as §1
# HCC-827 = system: HCC-827
# Method in brief: as §1
smiles,measurement,setting,value
O=C(O)c1ccc(-c2c[nH]c3ncc(-c4ccccc4)cc23)cc1C1CCCC1 + COc1cccc2cc(-c3nc([C@H]4CC[C@H](C(=O)O)CC4)n4ncnc(N)c34)[nH]c12 [OSI-027] (partner 0.5 µM),relative viability,NCI-H1975; first compound 0.04 µM,0.7
same,relative viability,NCI-H1975; first compound 0.1265 µM,0.871
same,relative viability,NCI-H1975; first compound 0.4 µM,0.648
same,relative viability,NCI-H1975; first compound 1.265 µM,0.629
same,relative viability,NCI-H1792; first compound 0.1265 µM,0.908
same,relative viability,NCI-H1792; first compound 0.4 µM,0.698
same,relative viability,NCI-H1792; first compound 1.265 µM,0.696
same,relative viability,COR-L 105; first compound 0.04 µM,0.635
same,relative viability,COR-L 105; first compound 0.1265 µM,0.673
same,relative viability,COR-L 105; first compound 0.4 µM,0.757
same,relative viability,COR-L 105; first compound 1.265 µM,0.838
same,relative viability,NCI-H1437; first compound 0.04 µM,0.898
same,relative viability,NCI-H1437; first compound 0.1265 µM,0.926
same,relative viability,NCI-H1437; first compound 0.4 µM,1.01
same,relative viability,NCI-H1437; first compound 1.265 µM,0.565
same,relative viability,SW 1573; first compound 0.04 µM,0.685
same,relative viability,SW 1573; first compound 0.1265 µM,0.74
same,relative viability,SW 1573; first compound 0.4 µM,0.55
same,relative viability,SW 1573; first compound 1.265 µM,0.447
same,relative viability,NCI-H1355; first compound 0.04 µM,0.43
same,relative viability,NCI-H1355; first compound 0.1265 µM,0.47
same,relative viability,NCI-H1355; first compound 0.4 µM,0.371
same,relative viability,NCI-H1355; first compound 1.265 µM,0.379
same,relative viability,NCI-H727; first compound 0.04 µM,0.678
same,relative viability,NCI-H727; first compound 0.1265 µM,0.672
same,relative viability,NCI-H727; first compound 0.4 µM,0.887
same,relative viability,NCI-H727; first compound 1.265 µM,0.667
same,relative viability,NCI-H1915; first compound 0.04 µM,0.629
same,relative viability,NCI-H1915; first compound 0.1265 µM,0.638
same,relative viability,NCI-H1915; first compound 0.4 µM,0.604
same,relative viability,NCI-H1915; first compound 1.265 µM,0.545
same,relative viability,LCLC-103H; first compound 0.04 µM,0.444
same,relative viability,LCLC-103H; first compound 0.1265 µM,0.554
same,relative viability,LCLC-103H; first compound 0.4 µM,0.389
same,relative viability,LCLC-103H; first compound 1.265 µM,0.452
same,relative viability,NCI-H2228; first compound 0.04 µM,0.557
same,relative viability,NCI-H2228; first compound 0.1265 µM,0.568
same,relative viability,NCI-H2228; first compound 0.4 µM,0.446
same,relative viability,NCI-H2228; first compound 1.265 µM,0.355
same,relative viability,NCI-H2009; first compound 0.04 µM,0.69
same,relative viability,NCI-H2009; first compound 0.1265 µM,0.687
same,relative viability,NCI-H2009; first compound 0.4 µM,0.648
same,relative viability,NCI-H2009; first compound 1.265 µM,0.549
same,relative viability,SK-LU-1; first compound 0.04 µM,0.329
same,relative viability,SK-LU-1; first compound 0.1265 µM,0.391
same,relative viability,SK-LU-1; first compound 0.4 µM,0.324
same,relative viability,SK-LU-1; first compound 1.265 µM,0.274
same,relative viability,HOP-62; first compound 0.04 µM,0.899
same,relative viability,HOP-62; first compound 0.1265 µM,0.859
same,relative viability,HOP-62; first compound 0.4 µM,0.707
same,relative viability,HOP-62; first compound 1.265 µM,0.805
same,relative viability,CAL-12T; first compound 0.04 µM,0.63
same,relative viability,CAL-12T; first compound 0.1265 µM,0.751
same,relative viability,CAL-12T; first compound 0.4 µM,0.671
same,relative viability,CAL-12T; first compound 1.265 µM,0.547
same,relative viability,HCC-366; first compound 0.04 µM,1.17
same,relative viability,HCC-366; first compound 0.1265 µM,0.849
same,relative viability,HCC-366; first compound 0.4 µM,0.966
same,relative viability,HCC-366; first compound 1.265 µM,0.994
same,relative viability,NCI-H23; first compound 0.04 µM,0.599
same,relative viability,NCI-H23; first compound 0.1265 µM,0.71
same,relative viability,NCI-H23; first compound 0.4 µM,0.576
same,relative viability,NCI-H23; first compound 1.265 µM,0.531
same,relative viability,A-427; first compound 0.04 µM,0.48
same,relative viability,A-427; first compound 0.1265 µM,0.54
same,relative viability,A-427; first compound 0.4 µM,0.418
same,relative viability,A-427; first compound 1.265 µM,0.493
same,relative viability,NCI-H1395; first compound 0.04 µM,0.627
same,relative viability,NCI-H1395; first compound 0.1265 µM,0.773
same,relative viability,NCI-H1395; first compound 0.4 µM,0.516
same,relative viability,NCI-H1395; first compound 1.265 µM,0.537
same,relative viability,HARA; first compound 0.04 µM,0.463
same,relative viability,HARA; first compound 0.1265 µM,0.733
same,relative viability,HARA; first compound 0.4 µM,0.55
same,relative viability,HARA; first compound 1.265 µM,0.591
same,relative viability,NCI-H1755; first compound 0.04 µM,0.748
same,relative viability,NCI-H1755; first compound 0.1265 µM,0.814
same,relative viability,NCI-H1755; first compound 0.4 µM,0.724
same,relative viability,NCI-H1755; first compound 1.265 µM,0.673
same,relative viability,NCI-H460; first compound 0.04 µM,0.645
same,relative viability,NCI-H460; first compound 0.1265 µM,0.75
same,relative viability,NCI-H460; first compound 0.4 µM,0.683
same,relative viability,NCI-H460; first compound 1.265 µM,0.511
same,relative viability,EMC-BAC-2; first compound 0.04 µM,0.401
same,relative viability,EMC-BAC-2; first compound 0.1265 µM,0.388
same,relative viability,EMC-BAC-2; first compound 0.4 µM,0.39
same,relative viability,EMC-BAC-2; first compound 1.265 µM,0.365
same,relative viability,HCC-827; first compound 0.04 µM,0.65
same,relative viability,HCC-827; first compound 0.1265 µM,0.81
same,relative viability,HCC-827; first compound 0.4 µM,0.725
same,relative viability,HCC-827; first compound 1.265 µM,0.77
